This is an account of results in patent US20240262817A1, “QUINAZOLINE DERIVATIVES TARGETING R(CCUG) REPEATS IN MYOTONIC DYSTROPHY TYPE 2” (University of Florida Research Foundation, Incorporated, priority 2021, published 2024).

One experiment relates to r(CCUG)12-MBNL1 complex. The experiment is described as follows: TR-FRET assay, disruption of pre-formed r(CCUG)12-MBNL1 complex. The class given is biochemical. As to conditions: in vitro, read-out: IC50 for disrupting an r(CCUG)12-MBNL1 complex. An excerpt:
Of the 44 hits, 38 contained a similar substituted N2-phenylquinazoline-2,4-diamine core, while the other hits contained benzimidazoles and indazoles (Figure S2). Importantly, these 44 compounds are drug-like as they have similar physicochemical properties to the rest of the library and to known-drugs in Drug Bank (FIG. 2A). On average, the 44 hit compounds have a molecular weight of 327±35 g/mol, a cLogP of 3.2±0.9. TPSA of 76±15 Å, and 2.5±0.9 hydrogen bond donors. The in vitro potencies (IC50s) of the 44 compounds were then measured in the TR-FRET assay, affording seven compounds (1-7) with IC50s <50 μM (highlighted in red in FIGS. 2B & 2C).
In vitro IC50 measurements: IC50 measurements for disruption of r(CCUG)12-MBNL1 complex was completed using a previously reported TR-FRET assay with minor modifications.^23, 24 Briefly, 5′-biotinylated r(CCUG)12 (SEQ ID NO: 15) was folded in 1× Folding Buffer (20 mM HEPES, pH 7.5, 110 mM KCl, and 10 mM NaCl) at 60° C. for 5 min then cooled to room temperature. The buffer was adjusted to 1× Assay Buffer (20 mM HEPES, pH 7.5, 110 mM KCl, 10 mM NaCl, 2 mM MgCl2, 2 mM CaCl2), 5 mM DTT. 0.1% BSA, and 0.5% Tween-20).
Next, MBNL1-His6 was added, and the samples were incubated at room temperature for 15 min. […] The samples were incubated for 30 min at room temperature and added to a white 384-well plate, where TR-FRET was measured on a Molecular Devices SpectraMax M5 plate reader using an excitation wavelength of 345-nm and a 420-nm cutoff. The ratios of fluorescence intensity at 545 and 665 nm were calculated, and ratios in the absence of a compound and in the absence of RNA were used to calculate percent disruption. […]
[formula] • where y is ratio of fluorescence intensities at 545 nm and 665 nm (F545/F665), x is the concentration of a compound, B is F545/F665 value at max FRET effect (solution has RNA and protein but no compound added); A is F545/F665 value at min FRET effect (solution has antibodies but no RNA, protein, or compound); and the IC50 is the concentration of a compound where half of the protein is displaced by a compound.

The subject of experiment [1] is CNBP mature mRNA in DM2 patient-derived fibroblasts. The experiment is described as follows: CNBP mature mRNA levels via RT-qPCR in DM2 fibroblasts. It counts as cell-based. On the procedure: (§1) Cell lines and cell culture: Compounds were tested in two cell lines: (i) DM2 patient-derived fibroblasts (generous gift from University of Florida, Center for NeuroGenetics) and (ii) fibroblasts from a healthy donor (wild-type; WT GM07492; Coriell Institute). Cells were maintained at 37° ° C. with 5% CO2. DM2 fibroblasts were cultured in DMEM/high glucose (HyClone) supplemented with 20% FBS (Sigma) and 1% Antibiotic-Antimycotic solution (Corning). Wild-type fibroblasts were cultured in MEM (Corning) supplemented with 10% FBS, 1% Glutagro (Corning), and 1% Antibiotic-Antimycotic solution.
(§2) Evaluation of CNBP abundance via RT-qPCR: CNBP abundance was evaluated as previously described.^10 Briefly, cells were grown in 6-well plates and treated with the desired compound in growth medium at 40% confluency. […] Approximately 1 μg of total RNA was reverse transcribed using a qScript cDNA synthesis kit (20 μL total reaction volume, Quanta BioSciences); 2 μL of the reverse transcription (RT) reaction was used for each primer pair (Table S1) for quantitative PCR with SYBR Green Master Mix, performed on a QuantStudio 5, 384-well Block Real-Time PCR System (Applied Biosciences). Relative abundance was determined by normalizing to GAPDH (n=6 replicates per concentration; 2 independent experiments).
In general terms: Quantitative PCR measures a nucleic acid by following its amplification.

Experiment [2] concerns CNBP intron 1 in wild-type fibroblasts. The experiment is described as follows: CNBP intron 1 levels via RT-qPCR in wild-type fibroblasts. The class given is cell-based. On the procedure: as §1, §2

As for `Cc1ccc2nc(Nc3ccc4nc(C)sc4c3)nc(NCCCO)c2c1` [Compound 63, 3-((6-methyl-2-((2-methylbenzo[d]thiazol-6-yl)amino)quinazolin-4-yl)amino)propan-1-ol], in the experiment on r(CCUG)12-MBNL1 complex, the IC50 (in general, the concentration needed to halve the response being measured) came out at 2200 ± 500 nM. In experiment [1], the “levels of CNBP mature mRNA” value was “did not affect”. Further, the “effect on CNBP intron 1 levels” value in experiment [2] is listed as “no effect”.
